The experiment has as its target T1, recombinant human PAI-1 (Homo sapiens, UniProt P05121).
T1 construct: purchased Molecular Innovations, Inc
Put plainly: Test Example 2: human PAI-1 inhibitory activity (tPA fluorogenic substrate, pH 7.4 HEPES buffer). Format: biochemical. Here is the method:
0.1 M HEPES, 0.1 M NaCl. 1 mM EDTA. 0.1% Polyethylene glycol 8,000 (Hampton Research Corporation),
2 mM Dimethyldecylphoshine oxide [Apo-10] (Fluka Corporation)

The mark [1] stands for this setting: human PAI-1, compound concentration 1 μM.
Setting [2] is: human PAI-1, compound concentration 3 μM.
Setting [3] is: human PAI-1, compound concentration 10 μM.
[4] abbreviates: human PAI-1, compound concentration 25 μM.
[5] abbreviates: human PAI-1, compound concentration 0.1 μM.
The mark [6] stands for this setting: human PAI-1, compound concentration 0.3 μM.
The mark [7] stands for this setting: human PAI-1, calculated from the inhibition rates.

We go through 32 compounds from patent US8633245B2, “PAI-1 inhibitor” (Institute of Medicinal Molecular Design, Inc., priority 2008, dated 2014).

Where two headings read alike, the source gives them in different places.

A word on the IC50: it is the concentration that inhibits the measured activity by half.

T1 sequence (P05121 24-402): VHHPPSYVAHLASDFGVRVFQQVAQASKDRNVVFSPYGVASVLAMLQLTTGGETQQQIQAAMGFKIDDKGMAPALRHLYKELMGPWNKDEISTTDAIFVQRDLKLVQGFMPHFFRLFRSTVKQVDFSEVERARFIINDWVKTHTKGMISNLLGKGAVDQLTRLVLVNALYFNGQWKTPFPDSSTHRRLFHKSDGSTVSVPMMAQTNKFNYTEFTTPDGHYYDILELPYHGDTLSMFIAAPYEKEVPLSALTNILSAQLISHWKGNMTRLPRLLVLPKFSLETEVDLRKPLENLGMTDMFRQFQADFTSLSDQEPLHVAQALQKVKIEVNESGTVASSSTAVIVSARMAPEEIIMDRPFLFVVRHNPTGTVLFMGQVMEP

In the case of `CN(C(=O)c1ccc(OC(F)(F)F)cc1)c1ccc(OCc2ccc(C(C)(C)C)cc2)c(CCC(=O)O)c1` [Compound 416], the “Inhibition Rate of PAI-1 Activity (%)” value reads like this: under setting [1], 26%; under setting [2], 54%; under setting [3], over 99%; under setting [4], over 99%.

Consider `CC(C)(C)c1ccc(Oc2cc(-c3ccc4ccccc4c3)ccc2/C=C/C(=O)O)cc1` [Compound 469], for which the “Inhibition Rate of PAI-1 Activity (%)” value is reported as 4% under setting [5], 22% under setting [6], 96% under setting [1] and over 99% under setting [2].

Take `CC(C)(C)c1ccc(C(=O)c2cc(-c3ccc(OC(F)(F)F)cc3)ccc2OCC(=O)O)cc1` [Compound 549]: the “Inhibition Rate of PAI-1 Activity (%)” value under setting [5] was 23%, the “Inhibition Rate of PAI-1 Activity (%)” value under setting [6] is reported as 22%, the “Inhibition Rate of PAI-1 Activity (%)” value under setting [1] turned out to be 84% and the “Inhibition Rate of PAI-1 Activity (%)” value under setting [2] is recorded as over 99%.

Turning to `CN(CC(=O)O)c1ccc(-c2ccc(OC(F)(F)F)cc2)cc1Oc1ccc(C(C)(C)C)cc1` [Compound 534], the “Inhibition Rate of PAI-1 Activity (%)” value is, setting by setting: under setting [5], 13%; under setting [6], 21%; under setting [1], 84%; under setting [2], over 99%.

As to `CC(C)(C)c1ccc(Oc2ccc(-c3ccc(OC(F)(F)F)cc3)cc2N(CCCCc2ccccc2)C(=O)C(=O)O)cc1` [Compound 636], the “Inhibition Rate of PAI-1 Activity (%)” value is, setting by setting: under setting [5], 2%; under setting [6], 21%; under setting [1], 72%; under setting [2], 81%.

Turning to `CCCCCOc1cc(-c2ccc(OC(F)(F)F)cc2)ccc1CN(CC(=O)O)c1ccc(C(C)(C)C)cc1` [Compound 649], the “Inhibition Rate of PAI-1 Activity (%)” value amounted to 10% under setting [5], 64% under setting [6], 96% under setting [1] and 97% under setting [2].

Regarding `CCCCN(CC(=O)O)c1ccc(-c2ccc(OC(F)(F)F)cc2)cc1Oc1ccc(C(C)(C)C)cc1` [Compound 533], the “Inhibition Rate of PAI-1 Activity (%)” value is 25% under setting [5], 83% under setting [6], 97% under setting [1] and 97% under setting [2].

`CC(C)(C)OCCOc1ccc(-c2ccc(OC(F)(F)F)cc2)cc1N(CCCCc1ccccc1)CC(=O)O` [Compound 644]: the “Inhibition Rate of PAI-1 Activity (%)” value runs as follows: under setting [5], 27%; under setting [6], 8%; under setting [1], 30%; under setting [2], 93%.

For the compound `CCCCOc1ccc(-c2ccc(OC(F)(F)F)cc2)cc1CCC(=O)O` [Compound 407], the “Inhibition Rate of PAI-1 Activity (%)” value under setting [1] turned out to be 14%, the “Inhibition Rate of PAI-1 Activity (%)” value under setting [2] was 41%, the “Inhibition Rate of PAI-1 Activity (%)” value under setting [3] is over 99% and the “Inhibition Rate of PAI-1 Activity (%)” value under setting [4] came out at 98%.

`CC(Oc1cc(-c2ccc(OC(F)(F)F)cc2)ccc1CCC(=O)O)c1ccccc1` (stereo not drawn) [Compound 501]: the “Inhibition Rate of PAI-1 Activity (%)” value amounted to 12% under setting [5], 0% under setting [6], 12% under setting [1] and 83% under setting [2].

For the compound `CC(C)(C)c1ccc(Oc2ccc(-c3cccc(C(F)(F)F)c3)cc2OCC(=O)O)cc1` [Compound 314], the IC50 under setting [7] was 1.86 µM.

For the compound `CC(C)(C)c1cccc(Oc2cc(-c3ccc(OC(F)(F)F)cc3)ccc2OCC(=O)O)c1` [Compound 436], the “Inhibition Rate of PAI-1 Activity (%)” value is given as 3% under setting [5], 19% under setting [6], 63% under setting [1] and over 99% under setting [2].

On to `CCCCCOc1ccc(-c2ccc(OC(F)(F)F)cc2)cc1N(CCCCc1ccccc1)CC(=O)O` [Compound 640], for which the “Inhibition Rate of PAI-1 Activity (%)” value reads like this: under setting [5], 0%; under setting [6], 19%; under setting [1], 92%; under setting [2], 92%.

With `CC(C)(C)c1ccc(Oc2cc(-c3cccc(OC(F)(F)F)c3)ccc2/C=C/C(=O)O)cc1` [Compound 503], the “Inhibition Rate of PAI-1 Activity (%)” value is, setting by setting: under setting [5], 13%; under setting [6], 27%; under setting [1], 97%; under setting [2], 93%.

In the case of `COc1ccc(-c2ccc(OCC(=O)O)c(Oc3ccc(C(C)(C)C)cc3)c2)cc1` [Compound 445], the “Inhibition Rate of PAI-1 Activity (%)” value by setting is: under setting [5], 0%; under setting [6], 1%; under setting [1], 12%; under setting [2], 50%.

Regarding `CCCCCOc1ccc(-c2ccc(F)cc2)cc1N(CCCCc1ccccc1)C(=O)C(=O)O` [Compound 359], the IC50 turned out to be 1.64 µM.

In the case of `CC(C)(C)c1ccc(Oc2cc(-c3cccc(OC(F)(F)F)c3)ccc2CCC(=O)O)cc1` [Compound 504], the “Inhibition Rate of PAI-1 Activity (%)” value under setting [5] stood at 13%, the “Inhibition Rate of PAI-1 Activity (%)” value under setting [6] was determined as 26%, the “Inhibition Rate of PAI-1 Activity (%)” value under setting [1] is recorded as 91% and the “Inhibition Rate of PAI-1 Activity (%)” value under setting [2] was over 99%.

Take `CCCCC(C(=O)O)N(Cc1ccc(C(C)(C)C)cc1)c1ccc(-c2ccc(OC(F)(F)F)cc2)cc1` (stereo not drawn) [Compound 642]: the “Inhibition Rate of PAI-1 Activity (%)” value is, setting by setting: under setting [5], 16%; under setting [6], 57%; under setting [1], 94%; under setting [2], 93%.

In the case of `Cc1cc(C)cc(COc2ccc(-c3ccc(OC(F)(F)F)cc3)cc2N(CCCCc2ccccc2)C(=O)C(=O)O)c1` [Compound 662], the “Inhibition Rate of PAI-1 Activity (%)” value reads like this: under setting [5], 18%; under setting [6], 28%; under setting [1], 98%; under setting [2], 95%.

As for `CC(C)(C)c1ccc(Oc2cc(-c3ccc(C(C)(C)C)cc3)ccc2CCC(=O)O)cc1` [Compound 497], the “Inhibition Rate of PAI-1 Activity (%)” value runs as follows: under setting [5], 3%; under setting [6], 24%; under setting [1], over 99%; under setting [2], over 99%.

Turning to `CC(C)(C)c1ccc(Oc2ccc(-c3ccc(OC(F)(F)F)cc3)cc2OCC(=O)O)cc1` [Compound 328], the IC50 under setting [7] was 1.46 µM. The “Inhibition Rate of PAI-1 Activity (%)” value by setting is: under setting [5], 0%; under setting [6], 14%; under setting [1], 30%; under setting [2], over 99%.

Consider `CCCCC(Oc1ccc(-c2cccc(C)c2)cc1Oc1ccc(C(C)(C)C)cc1)C(=O)O` (stereo not drawn) [Compound 321], for which the IC50 under setting [7] is 0.6 µM.

Turning to `CC(C)(C)c1ccc(Oc2cc(-c3ccc(F)cc3)ccc2OCC(=O)O)cc1` [Compound 459], the “Inhibition Rate of PAI-1 Activity (%)” value by setting is: under setting [5], 26%; under setting [6], 31%; under setting [1], 42%; under setting [2], 86%.

For the compound `O=C(O)COc1ccc(-c2ccc(OC(F)(F)F)cc2)cc1Oc1ccc(OCc2ccccc2)cc1` [Compound 492], the “Inhibition Rate of PAI-1 Activity (%)” value under setting [5] stood at 5%, the “Inhibition Rate of PAI-1 Activity (%)” value under setting [6] came to 20%, the “Inhibition Rate of PAI-1 Activity (%)” value under setting [1] is given as over 99% and the “Inhibition Rate of PAI-1 Activity (%)” value under setting [2] is reported as over 99%.

Consider `CC(C)(C)c1ccc(Oc2cc(Nc3ccc(OC(F)(F)F)cc3)ccc2/C=C/C(=O)O)cc1` [Compound 531], for which the “Inhibition Rate of PAI-1 Activity (%)” value by setting is: under setting [5], 3%; under setting [6], 38%; under setting [1], 94%; under setting [2], 96%.

Turning to `CCCCCOc1cc(-c2ccc(OC(F)(F)F)cc2)cc(N(CCCCc2ccccc2)C(=O)C(=O)O)c1OCCCCC` [Compound 372], the IC50 stood at 0.46 µM.

On to `CC(C)(C)c1ccc(Oc2cc(-c3ccc(OC(F)(F)F)cc3)ccc2C(=O)O)cc1` [Compound 434], for which the “Inhibition Rate of PAI-1 Activity (%)” value by setting is: under setting [5], 14%; under setting [6], 8%; under setting [1], 66%; under setting [2], over 99%.

Take `CC(C)c1ccc(Sc2cc(-c3ccc(OC(F)(F)F)cc3)ccc2/C=C/C(=O)O)cc1` [Compound 516]: the “Inhibition Rate of PAI-1 Activity (%)” value under setting [5] was determined as 16%, the “Inhibition Rate of PAI-1 Activity (%)” value under setting [6] is on record as 39%, the “Inhibition Rate of PAI-1 Activity (%)” value under setting [1] is listed as 98% and the “Inhibition Rate of PAI-1 Activity (%)” value under setting [2] is over 99%.

On to `O=C(O)/C=C/c1ccc(-c2ccc(OC(F)(F)F)cc2)cc1OC(c1ccccc1)c1ccccc1` [Compound 506], for which the “Inhibition Rate of PAI-1 Activity (%)” value was 2% under setting [5], 9% under setting [6], 78% under setting [1] and over 99% under setting [2].

On to `CC(C)(C)c1ccc(COc2cc(-c3ccc(OC(F)(F)F)cc3)ccc2OCC(=O)O)cc1` [Compound 304], for which the IC50 under setting [7] is 1.23 µM.

For the compound `CC(C)(C)c1ccc(Oc2cc(OCC(=O)O)cc(-c3ccc(OC(F)(F)F)cc3)c2)cc1` [Compound 427], the “Inhibition Rate of PAI-1 Activity (%)” value reads like this: under setting [5], 1%; under setting [6], 27%; under setting [1], 62%; under setting [2], 97%.

Turning to `CC(C)(C)c1ccc(-c2ccc(/C=C/C(=O)O)c(Oc3ccc(OC(F)(F)F)cc3)c2)cc1` [Compound 478], the “Inhibition Rate of PAI-1 Activity (%)” value is 11% under setting [5], 33% under setting [6], 90% under setting [1] and over 99% under setting [2].
